Here are results for two molecules from ChEMBL document CHEMBL4507307 (2021).

Molecules are shown by their SMILES.

In experiment [1] the target is 5-hydroxytryptamine receptor 1B (Homo sapiens, UniProt P28222). In words: GPCRScan assay: inhibition of 5-HT1B. On the set-up: radioligand conc. used [nm] 0.6 – 1.5, parental cells stable HEK.
The target in experiment [2] is 5-hydroxytryptamine receptor 1D (Homo sapiens, UniProt P28221). Nature of the experiment: GPCRScan assay: inhibition of 5-HT1D. Also on record: radioligand conc. used [nm] 1.0 – 2.0, parental cells HEKT.
Experiment [3] is filed under the species Rattus norvegicus. As to conditions: Compound concentration 10.0 uM.
For experiment [4], the target named is Dual specificity tyrosine-phosphorylation-regulated kinase 3 (Homo sapiens) (UniProt O43781). In words: DYRK3 Kinase activity screen.
Experiment [5] concerns the target Angiopoietin-1 receptor (Homo sapiens) (UniProt Q02763). Nature of the experiment: TEK (Tie2) Kinase activity screen.
In experiment [6] the target is Death-associated protein kinase 1 (Homo sapiens) (UniProt P53355). Nature of the experiment: DAPK1 Kinase activity screen.
The target in experiment [7] is Mitogen-activated protein kinase 8 (Homo sapiens) (UniProt P45983). In words: MAPK8 (JNK1) Kinase activity screen.
Experiment [8] has as its target Mitogen-activated protein kinase 1 (Homo sapiens) (UniProt P28482). Nature of the experiment: MAPK1 (ERK2) Kinase activity screen.
Experiment [9] addresses Tyrosine-protein kinase JAK2 (Homo sapiens) (UniProt O60674). Nature of the experiment: JAK2 Kinase activity screen.
In experiment [10] the target is SRSF protein kinase 2 (Homo sapiens) (UniProt P78362). In words: SRPK2 Kinase activity screen.
For experiment [11], the target named is Dual specificity protein kinase CLK3 (Homo sapiens) (UniProt P49761). Nature of the experiment: CLK3 Kinase activity screen.
In experiment [12] the target is Hepatocyte growth factor receptor (Homo sapiens) (UniProt P08581). In words: MET (cMet) Kinase activity screen. As to conditions: Compound concentration 1.0 uM.
For experiment [13], the target named is Proto-oncogene tyrosine-protein kinase receptor Ret (Homo sapiens) (UniProt P07949). In words: RET Kinase activity screen.
The target of experiment [14] is cAMP-dependent protein kinase catalytic subunit alpha (Homo sapiens) (UniProt P17612). In words: PRKACA (PKA) Kinase activity screen.
The target in experiment [15] is Ephrin type-B receptor 1 (Homo sapiens) (UniProt P54762). Nature of the experiment: EPHB1 Kinase activity screen.
The target of experiment [16] is Serine/threonine-protein kinase PLK1 (Homo sapiens) (UniProt P53350). In words: PLK1 Kinase activity screen.
The target in experiment [17] is Mast/stem cell growth factor receptor Kit (Homo sapiens) (UniProt P10721). In words: KIT Kinase activity screen.
The target in experiment [18] is Aurora kinase B (Homo sapiens) (UniProt Q96GD4). In words: AURKB (Aurora B) Kinase activity screen.
[19] abbreviates: Compound concentration 0.123 uM.

Mast/stem cell growth factor receptor Kit (Homo sapiens), sequence (P10721 whole entry): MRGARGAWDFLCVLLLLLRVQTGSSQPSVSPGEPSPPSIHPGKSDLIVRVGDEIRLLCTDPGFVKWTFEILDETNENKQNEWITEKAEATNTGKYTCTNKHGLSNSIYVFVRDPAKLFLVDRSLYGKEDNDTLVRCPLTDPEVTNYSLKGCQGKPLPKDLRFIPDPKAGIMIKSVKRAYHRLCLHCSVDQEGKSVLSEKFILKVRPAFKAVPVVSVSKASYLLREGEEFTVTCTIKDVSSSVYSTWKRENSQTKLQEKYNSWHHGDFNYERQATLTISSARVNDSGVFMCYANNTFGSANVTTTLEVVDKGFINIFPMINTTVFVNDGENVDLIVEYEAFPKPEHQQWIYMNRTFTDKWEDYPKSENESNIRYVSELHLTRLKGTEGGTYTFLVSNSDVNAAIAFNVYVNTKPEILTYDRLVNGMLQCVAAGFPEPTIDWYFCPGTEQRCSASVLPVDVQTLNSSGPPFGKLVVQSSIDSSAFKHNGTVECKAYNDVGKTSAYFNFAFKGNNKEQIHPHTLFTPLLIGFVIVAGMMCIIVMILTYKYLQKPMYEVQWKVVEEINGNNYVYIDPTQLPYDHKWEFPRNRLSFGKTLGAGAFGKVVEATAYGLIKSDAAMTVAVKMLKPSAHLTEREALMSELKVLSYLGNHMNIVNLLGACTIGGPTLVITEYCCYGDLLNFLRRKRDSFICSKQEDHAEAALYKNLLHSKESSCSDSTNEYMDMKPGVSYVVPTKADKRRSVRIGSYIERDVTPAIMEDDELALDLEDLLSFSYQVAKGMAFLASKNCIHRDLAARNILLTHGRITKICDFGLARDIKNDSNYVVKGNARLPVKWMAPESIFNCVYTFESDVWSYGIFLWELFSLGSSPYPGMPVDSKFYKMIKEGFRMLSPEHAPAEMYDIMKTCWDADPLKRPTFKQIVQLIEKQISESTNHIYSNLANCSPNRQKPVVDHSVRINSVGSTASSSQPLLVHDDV
Dual specificity protein kinase CLK3 (Homo sapiens), sequence (P49761 whole entry, looked up): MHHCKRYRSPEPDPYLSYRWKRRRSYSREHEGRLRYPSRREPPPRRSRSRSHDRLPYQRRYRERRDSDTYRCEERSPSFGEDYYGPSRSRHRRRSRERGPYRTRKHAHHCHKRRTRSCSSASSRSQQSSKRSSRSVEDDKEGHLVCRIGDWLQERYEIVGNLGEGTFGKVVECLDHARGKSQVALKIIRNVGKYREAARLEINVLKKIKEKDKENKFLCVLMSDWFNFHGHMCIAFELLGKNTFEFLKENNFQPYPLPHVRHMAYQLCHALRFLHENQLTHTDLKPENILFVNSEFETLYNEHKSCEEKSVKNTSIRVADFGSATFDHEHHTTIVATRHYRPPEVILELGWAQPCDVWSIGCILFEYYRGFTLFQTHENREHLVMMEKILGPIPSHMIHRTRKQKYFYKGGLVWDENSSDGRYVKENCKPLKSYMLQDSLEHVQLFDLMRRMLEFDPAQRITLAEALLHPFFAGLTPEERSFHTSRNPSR
Proto-oncogene tyrosine-protein kinase receptor Ret (Homo sapiens), sequence (P07949 whole entry): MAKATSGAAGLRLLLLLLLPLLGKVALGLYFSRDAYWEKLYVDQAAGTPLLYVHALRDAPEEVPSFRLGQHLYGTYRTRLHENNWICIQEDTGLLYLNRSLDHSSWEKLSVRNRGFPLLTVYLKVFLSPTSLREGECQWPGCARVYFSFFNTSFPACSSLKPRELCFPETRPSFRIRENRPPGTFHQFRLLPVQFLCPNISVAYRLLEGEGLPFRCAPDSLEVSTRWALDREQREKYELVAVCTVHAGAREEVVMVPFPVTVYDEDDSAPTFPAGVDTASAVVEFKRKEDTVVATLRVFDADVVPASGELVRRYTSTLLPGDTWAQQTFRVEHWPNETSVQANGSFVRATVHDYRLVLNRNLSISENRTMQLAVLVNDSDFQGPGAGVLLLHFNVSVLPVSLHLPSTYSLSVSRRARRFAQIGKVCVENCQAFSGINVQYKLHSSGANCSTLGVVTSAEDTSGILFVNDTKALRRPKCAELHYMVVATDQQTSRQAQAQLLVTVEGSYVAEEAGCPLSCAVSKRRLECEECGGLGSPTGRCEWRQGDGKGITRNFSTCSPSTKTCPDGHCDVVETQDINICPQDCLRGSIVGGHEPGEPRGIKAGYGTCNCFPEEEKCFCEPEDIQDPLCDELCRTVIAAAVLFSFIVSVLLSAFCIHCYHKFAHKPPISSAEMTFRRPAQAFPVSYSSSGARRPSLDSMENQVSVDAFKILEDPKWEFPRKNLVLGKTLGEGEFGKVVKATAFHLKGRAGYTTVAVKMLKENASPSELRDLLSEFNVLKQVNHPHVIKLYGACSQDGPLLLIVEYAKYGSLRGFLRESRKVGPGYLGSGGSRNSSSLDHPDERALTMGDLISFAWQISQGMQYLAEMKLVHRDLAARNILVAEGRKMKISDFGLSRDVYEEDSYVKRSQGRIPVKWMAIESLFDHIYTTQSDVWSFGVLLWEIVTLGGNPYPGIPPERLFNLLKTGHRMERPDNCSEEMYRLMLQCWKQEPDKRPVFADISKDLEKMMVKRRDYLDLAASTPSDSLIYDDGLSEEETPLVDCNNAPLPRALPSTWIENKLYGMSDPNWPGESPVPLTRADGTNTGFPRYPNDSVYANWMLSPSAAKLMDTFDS
Ephrin type-B receptor 1 (Homo sapiens), sequence (P54762 whole entry): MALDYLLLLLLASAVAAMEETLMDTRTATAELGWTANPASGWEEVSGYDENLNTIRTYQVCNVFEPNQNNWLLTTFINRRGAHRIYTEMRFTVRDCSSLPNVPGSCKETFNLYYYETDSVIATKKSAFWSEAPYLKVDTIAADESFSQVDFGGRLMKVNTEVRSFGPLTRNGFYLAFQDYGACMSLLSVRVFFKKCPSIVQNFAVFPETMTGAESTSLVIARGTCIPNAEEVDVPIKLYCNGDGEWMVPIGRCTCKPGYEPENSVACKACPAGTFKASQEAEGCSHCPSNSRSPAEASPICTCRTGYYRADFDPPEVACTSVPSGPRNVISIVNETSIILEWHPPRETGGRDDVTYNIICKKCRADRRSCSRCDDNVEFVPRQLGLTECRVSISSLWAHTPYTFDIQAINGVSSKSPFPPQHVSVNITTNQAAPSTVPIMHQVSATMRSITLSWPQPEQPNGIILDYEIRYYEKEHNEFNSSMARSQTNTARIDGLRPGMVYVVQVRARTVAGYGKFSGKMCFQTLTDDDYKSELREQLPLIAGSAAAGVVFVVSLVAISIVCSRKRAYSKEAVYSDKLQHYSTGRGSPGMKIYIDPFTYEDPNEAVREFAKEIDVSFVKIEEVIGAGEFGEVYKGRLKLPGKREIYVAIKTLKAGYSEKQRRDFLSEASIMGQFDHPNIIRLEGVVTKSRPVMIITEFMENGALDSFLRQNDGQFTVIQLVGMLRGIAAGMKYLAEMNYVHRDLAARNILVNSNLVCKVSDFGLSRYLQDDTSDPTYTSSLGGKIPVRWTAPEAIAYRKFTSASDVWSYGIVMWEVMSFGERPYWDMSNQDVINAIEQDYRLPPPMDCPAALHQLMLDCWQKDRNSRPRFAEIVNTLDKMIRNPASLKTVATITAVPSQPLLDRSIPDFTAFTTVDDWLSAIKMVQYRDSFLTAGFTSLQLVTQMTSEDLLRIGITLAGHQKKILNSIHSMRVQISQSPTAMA
Mitogen-activated protein kinase 8 (Homo sapiens), sequence (P45983 whole entry): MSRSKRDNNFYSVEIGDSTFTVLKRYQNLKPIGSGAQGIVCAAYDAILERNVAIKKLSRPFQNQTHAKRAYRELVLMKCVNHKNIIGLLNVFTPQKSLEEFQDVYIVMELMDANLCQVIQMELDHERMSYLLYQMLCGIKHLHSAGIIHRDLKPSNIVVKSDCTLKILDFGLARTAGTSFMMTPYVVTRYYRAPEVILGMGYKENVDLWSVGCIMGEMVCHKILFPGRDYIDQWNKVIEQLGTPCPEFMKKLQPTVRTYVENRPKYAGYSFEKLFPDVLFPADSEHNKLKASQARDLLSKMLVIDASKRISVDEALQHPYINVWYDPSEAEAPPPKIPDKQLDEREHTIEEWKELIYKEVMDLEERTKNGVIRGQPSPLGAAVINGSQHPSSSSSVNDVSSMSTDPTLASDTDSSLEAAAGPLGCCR
SRSF protein kinase 2 (Homo sapiens), sequence (P78362 whole entry, looked up): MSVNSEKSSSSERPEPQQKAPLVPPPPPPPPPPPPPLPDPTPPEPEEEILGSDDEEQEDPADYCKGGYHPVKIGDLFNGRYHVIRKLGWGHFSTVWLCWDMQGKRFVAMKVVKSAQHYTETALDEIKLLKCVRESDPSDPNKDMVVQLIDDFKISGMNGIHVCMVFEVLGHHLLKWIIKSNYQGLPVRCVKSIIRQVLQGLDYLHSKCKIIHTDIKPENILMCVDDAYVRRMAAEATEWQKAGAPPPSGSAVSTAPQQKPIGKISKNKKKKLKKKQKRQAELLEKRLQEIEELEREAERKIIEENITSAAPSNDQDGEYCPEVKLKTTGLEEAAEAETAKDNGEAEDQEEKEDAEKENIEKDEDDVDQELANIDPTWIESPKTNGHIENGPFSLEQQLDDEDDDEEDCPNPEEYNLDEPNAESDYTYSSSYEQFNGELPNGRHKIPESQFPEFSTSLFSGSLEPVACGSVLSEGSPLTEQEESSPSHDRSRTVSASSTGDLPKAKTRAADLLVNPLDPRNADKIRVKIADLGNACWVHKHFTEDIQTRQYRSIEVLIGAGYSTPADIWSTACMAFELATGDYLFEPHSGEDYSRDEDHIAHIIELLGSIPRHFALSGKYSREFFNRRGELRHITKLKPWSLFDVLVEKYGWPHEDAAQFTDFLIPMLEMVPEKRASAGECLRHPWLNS
5-hydroxytryptamine receptor 1D, sequence (P28221 whole entry): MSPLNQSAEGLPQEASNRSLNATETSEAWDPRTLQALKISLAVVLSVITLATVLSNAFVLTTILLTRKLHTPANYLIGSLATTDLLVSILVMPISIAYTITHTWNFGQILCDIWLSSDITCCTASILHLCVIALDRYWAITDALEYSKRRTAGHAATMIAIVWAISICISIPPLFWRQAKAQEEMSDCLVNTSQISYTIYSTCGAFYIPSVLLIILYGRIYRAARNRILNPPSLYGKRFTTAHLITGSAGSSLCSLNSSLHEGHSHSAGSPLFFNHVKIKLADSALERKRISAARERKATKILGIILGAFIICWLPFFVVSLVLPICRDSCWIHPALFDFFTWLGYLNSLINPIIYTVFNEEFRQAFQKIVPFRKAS

Take `CN1CCN(C(=O)C(C)(C)c2ccc(C(=O)Nc3cn4cc(-c5cc(C(C)(C)C)cc(C(C)(C)C)c5)ccc4n3)cc2)CC1` [T3-CLK-N]: the Ki in [1] was 2170 nM; in experiment [2] (read-out: Ki), 3070 nM; in experiment [2] (read-out: pKi (converted)) it was 2820 nM. The inhibition in experiment [3] was -6.1%.
Take `CN1CCN(C(=O)C(C)(C)c2ccc(C(=O)Nc3cn4cc(-c5ccncc5)ccc4n3)cc2)CC1` [T3-CLK]: the inhibition was -1.82% in [4] (setting [19]); 3.7% in experiment [4] (Compound concentration 1.11 uM); 0.108% in experiment [5] (Compound concentration 0.1 uM); -0.329% in experiment [5] (Compound concentration 1.0 uM); -4.42% in [6] (Compound concentration 0.1 uM); -6.43% in [6] (Compound concentration 1.0 uM). In addition, the inhibition in experiment [7] (Compound concentration 0.1 uM) was 5.45%; in experiment [7] (Compound concentration 1.0 uM), 2.56%; in experiment [8] (Compound concentration 0.1 uM), 2.74%; in experiment [8] (Compound concentration 1.0 uM), 4.01%; in experiment [9] (Compound concentration 0.1 uM) it was -7.35%; in experiment [9] (Compound concentration 1.0 uM), -6.29%. Also, the inhibition in [10] (setting [19]) was 1.82%; in experiment [10] (Compound concentration 1.11 uM), 5.16%; in experiment [11] (setting [19]), 38.3%; in experiment [11] (Compound concentration 1.11 uM) it was 88.7%; in experiment [12] it was -7.39%; in experiment [13] (Compound concentration 0.1 uM), -1.05%. For the same molecule, the inhibition is -2.43% in experiment [13] (Compound concentration 1.0 uM); -1.57% in experiment [14] (Compound concentration 0.1 uM); 3.62% in [14] (Compound concentration 1.0 uM); 4.83% in experiment [15] (Compound concentration 0.1 uM); 4.09% in [15] (Compound concentration 1.0 uM); 7.85% in [16] (Compound concentration 0.1 uM). Also, the inhibition is 2.48% in [16] (Compound concentration 1.0 uM); 11% in experiment [17] (Compound concentration 0.1 uM); 37.5% in experiment [17] (Compound concentration 1.0 uM); 6.77% in [18] (Compound concentration 0.1 uM); 16.1% in experiment [18] (Compound concentration 1.0 uM).

As usually defined, the inhibition is the drop in the measured response relative to a control, in per cent.
